Active and inactive are the calls of the source. No rule for the calls is given here. Where only a bound is given, the exact number is not on record here.

Usually EC50 stands for the concentration giving half of the maximal effect.

For the test, the target named is CRF-binding protein / CRF-R2 receptor complex (human). Kind of test: activators of CRF-R2 paired with CRF-BP – cell-based, 384-well, SAR follow-up (AID 651648). To be noted: cells expressing CRF-BP/CRF-R2 complex, agonist read-out.
In the case of `O=C(O)c1ccc(COc2ccccc2C=C2C(=O)c3ccccc3C2=O)cc1`, the EC50 is > 20 µM (inactive). Then `COc1ccc(S(=O)(=O)N(CC(=O)N2CCOCC2)c2ccccc2OC)cc1`, with > 20 µM (inactive); and `CCOc1ccccc1N(CC(=O)N1CCOCC1)S(=O)(=O)c1ccc(C#N)cc1`, with > 20 µM (inactive); and `CC(C)c1nc2c(c(=O)c3ccccc3n2C)c(=O)n1CCc1ccccc1`, with 7.24 µM.

The values above are taken from PubChem BioAssay AID651648 (Sanford-Burnham Center for Chemical Genomics, 2012).
